Measurements from US12649735B2 (HAIHE BIOPHARMA CO., LTD., priority 2019, dated 2026).

How the values were obtained:
[1] = biological target: T1, bromodomain protein BRD4 BD1 (Homo sapiens, UniProt O60885); test: HTRF in vitro assay, inhibitory activity against BRD4 BD1; format: binding; conditions: BRD4(1) 30 nM in final system
T1 construct: The proteins BRD4 BD1/BD2 used in the experiment were purchased from Active Motif Company (Cat. No. 31380/31446); purchased Active Motif 31380
Procedure: In this example, the half inhibitory activity (IC50) of the compounds of the present invention against the bromodomain protein BRD4 BD1 was determined.
(§1) The inhibitory activity of the compound against BRD4 BD1 was determined by using Homogeneous Time-Resolved Fluorescence (HTRF).
(§2) The proteins BRD4 BD1/BD2 used in the experiment were purchased from Active Motif Company (Cat. No. 31380/31446); Streptavidin XL-665 (#610SAXLA) and EPIgeneous Binding Domain Kit A (#62BDAPEG) were purchased from Cisbio Bioassays Company, [Lys(5,8,12,16)Ac]H4(1-21)-biotin (#64989), and [Lys(5,8,12,16)Ac]H4(1-25) were products of AnaSpec company; OTX015 and ABBV-075 were purchased from SelleckChem. 384 Well ProxiPlate (#6008280) was purchased from PerkinElmer. The multifunctional microplate reader used for the experimental was a product of PerkinElmer, model: Envision 2104. The experimental water was Millipore-Q pure water.
(§3) 10 mM of stock solution of compound in DMSO was diluted to 1 mM with DMSO and stored, and then diluted 10 times with Binding Domain dilution buffer (purchased from Cisbio Bioassays) for use (the concentration of DMSO in the final system was […]), 1:5 gradient dilution, a total of 5 concentrations.
(§4) 4. Test Method: 1 Batch, 2 Duplicate Wells
(§5) • 1) 5 μL of test compound was transferred to 45 μL of Binding Domain dilution buffer. • 2) 2 μL of 10× compound (4 μL Binding Domain dilution buffer: positive control; 6 μL enzyme buffer (purchased from Cisbio Bioassays): negative control) was transferred to the reaction plate. • 3) 4 μL of 5×BRD4(1) or BRD4(2) (30 nM in final system) was added to the reaction plate. • 4) 4 μL of 5×[Lys(5,8,12,16)Ac]H4(1-21)-biotin was added to the reaction plate, and the plate was covered with a film, and incubated at 37° C. for 30 min. • 5) A detection mixture of SA-XL665 (2×) and anti-H3K9me0-Eu(K) (2×) was prepared in detection buffer (purchased from Cisbio Bioassays). • 6) 10 μL of detection mixture (2×) was added to each well, and incubated for 3 h at room temperature, and the mp value was read using a multi-plate reader Envision. The parameters were set as follows.

[2] = biological target: T2, bromodomain protein BRD4 BD2 (Homo sapiens, UniProt O60885); test: HTRF in vitro assay, inhibitory activity against BRD4 BD2; format: binding; conditions: BRD4(2) 30 nM in final system
T2 construct: The proteins BRD4 BD1/BD2 used in the experiment were purchased from Active Motif Company (Cat. No. 31380/31446); purchased Active Motif 31446
Procedure: as §1, §2, §3, §4, §5

Compound	IC50 [1] [nM]	IC50 [2] [nM]
CCNC(=O)c1cc2c(C(C)c3ccccc3)cn(C)c(=O)c2[nH]1 (stereo not shown) [Compound A5, N-ethyl-6-methyl-7-oxo-4-(1-phenethyl)-6,7-dihydro-1H-pyrrolo[2,3-c]pyridin-2-carboxamide]	100 to 1000	≤ 10
CCNC(=O)c1cc2c(-c3cn(C)nc3C(C)c3ccccc3)cn(C)c(=O)c2[nH]1 (stereo not shown) [Compound A33, N-ethyl-6-methyl-4-(1-methyl-3-(1-phenylethyl)-1H-pyrazol-4-yl)-7-oxo-6,7-dihydro-1H-pyrrolo[2,3c]pyridin-2-carboxamide]	100 to 1000	10 to 100
CC(c1ccccc1)c1cn(C)c(=O)c2[nH]c(-c3cnn(C)c3)cc12 (stereo not shown) [Compound A18, 6-methyl-2-(1-methyl-1H-pyrazol-4-yl)-4-(1-phenethyl)-1,6-dihydro-7H-pyrrolo[2,3-c]pyridin-7-one]	100 to 1000	≤ 10
CCNC(=O)c1cc2c(-c3c(C4CC4)nn(C)c3C3CC3)cn(C)c(=O)c2[nH]1 [Compound A34, 4-(3,5-dicyclopropyl-1-methyl-1H-pyrazol-4-yl)-N-ethyl-6-methyl-7-oxo-6,7-dihydro-1H-pyrrolo[2,3-c]pyridin-2-carboxamide]	100 to 1000	10 to 100
CC(c1ccccc1)c1cn(C)c(=O)c2[nH]c(-c3cncnc3)cc12 (stereo not shown) [Compound A45]	10 to 100	≤ 10
Cn1cc(Cc2ccccc2)c2c[nH]cc2c1=O [Compound A1]	100 to 1000	10 to 100
CCNC(=O)c1cc2c(C(C)c3ccc4ccccc4c3)cn(C)c(=O)c2[nH]1 (stereo not shown) [Compound A22, N-ethyl-6-methyl-4-(1-(naphthalen-2-yl)ethyl)-7-oxo-6,7-dihydro-1H-pyrrolo[2,3-c]pyridin-2-carboxamide]	100 to 1000	10 to 100
CC(c1ccccc1)c1cn(C)c(=O)c2cc(-c3cnn(C4COC4)c3)oc12 (stereo not shown) [Compound A59, 5-methyl-2-(1-(oxetan-3-yl)-1H-pyrazol-4-yl)-7-(1-phenethyl)furo[3,2-c]pyridin-4(5H)-one]	100 to 1000	10 to 100
Cc1cc(C)cc(-n2c(-c3cn(C)c(=O)c4[nH]c(C(=O)Nc5ccn(C)n5)cc34)nc3ncccc32)c1 [Compound A51]	10 to 100	≤ 10
CC(c1ccc(F)cc1)c1cn(C)c(=O)c2[nH]c(-c3cnn(C(CO)CN4CCN(C)CC4)c3)cc12 (stereo not shown) [Compound A62, 4-(1-(4-fluorophenyl)ethyl)-2-(1-(1-hydroxy-3-(4-methylpiperazin-1-yl)propan-2-yl)-1H-pyrazol-4-yl)-6-methyl-1,6-dihydro-7H-pyrrolo[2,3-c]pyridin-7-one]	100 to 1000	≤ 10
CCNC(=O)n1cc2c(C(OC)c3ccccc3)cn(C)c(=O)c2c1 (stereo not shown) [Compound A4, N-ethyl-7-(methoxy(phenyl)methyl)-5-methyl-4-oxo-4,5-dihydro-2H-pyrrolo[3,4-c]pyridin-2-carboxamide]	100 to 1000	10 to 100
6-methyl-7-carbonyl-4-(1-phenylethyl)-N-(tetrahydro-2H-pyran-4-yl)-6,7-dihydro-1H-pyrrolo[2,3-c]pyridin-2-carboxamide [Compound A6]	100 to 1000	≤ 10
Cn1cc(C(CO)c2ccccc2)c2cc(-c3cnn(C4COC4)c3)[nH]c2c1=O (stereo not shown) [Compound A67, 4-(2-hydroxy-1-phenethyl)-6-methyl-2-(1-(oxetan-3-yl)-1H-pyrazol-4-yl)-1,6-dihydro-7H-pyrrolo[2,3-c]pyridin-7-one]	100 to 1000	10 to 100
CC(c1ccc(Cl)cc1)c1cn(C)c(=O)c2[nH]c(C(=O)Nc3cnn(C)c3)cc12 (stereo not shown) [Compound A64, 4-(1-(4-chlorophenyl)ethyl)-6-methyl-N-(1-methyl-1H-pyrazol-4-yl)-7-oxo-6,7-dihydro-1H-pyrrolo[2,3-c]pyridin-2-carboxamide]	100 to 1000	10 to 100
Cc1ccc(C2c3ccccc3C(=O)N2c2cn(C)c(=O)c3[nH]c(C(=O)Nc4cn[nH]c4)cc23)cc1 (stereo not shown) [Compound A55]	100 to 1000	10 to 100
4-diphenylmethyl-N-ethylamino-6-methyl-7-oxo-6,7-dihydro-1H-pyrrolo[2,3-c]pyridin-2-carboxamide [Compound A29]	100 to 1000	10 to 100
4-(methoxy(phenyl)methyl)-6-methyl-2-(1-(oxetan-3-yl)-1H-pyrazol-4-yl)-1-tolyl-1,6-dihydro-7H-pyrrolo[2,3-c]pyridin-7-one [Compound A70]	100 to 1000	10 to 100
CC(c1ccccc1)c1cn(C)c(=O)c2[nH]c(C(=O)Nc3cnn(C)c3)cc12 (stereo not shown) [Compound A12, 6-methyl-N-(1-methyl-1H-pyrazol-4-yl)-7-oxo-4-(1-phenethyl)-6,7-dihydro-1H-pyrrolo[2,3-c]pyridin-2-carboxamide]	100 to 1000	≤ 10
CC(c1ccccc1)c1cn(C)c(=O)c2c(NC(=O)OC(C)(C)C)c(-c3cnn(C)c3)oc12 (stereo not shown) [Compound A61, tert-butyl (5-methyl-2-(1-methyl-1H-pyrazol-4-yl)-4-oxo-7-(1-phenethyl)-4,5-dihydrofuro[3,2-c]pyridin-3-yl carbamate]	100 to 1000	≤ 10
Cc1cc(C)cc(-n2c(-c3cn(C)c(=O)c4[nH]c(-c5cnn(C)c5)cc34)nc3ncccc32)c1 [Compound A49, 4-(1-(3,5-dimethylphenyl)-1H-imidazo[4,5-b]pyridin-2-yl)-6-methyl-2-(1-methyl-1H-pyrazol-4-yl)-1,6-di hydro-7H-pyrrolo[2,3-c]pyridin-7-one]	10 to 100	≤ 10
Cc1ccc(C2CCC(=O)N2c2cn(C)c(=O)c3[nH]c(C(=O)Nc4cn[nH]c4)cc23)cc1 (stereo not shown) [Compound A54]	100 to 1000	10 to 100
CCNC(=O)c1cc2c(-c3cc(C(C)=O)c4cccnc4c3OC)cn(C)c(=O)c2[nH]1 [Compound A37, 4-(5-acetyl-8-methoxyquinolin-7-yl)-N-ethyl-6-methyl-7-oxo-6,7-dihydro-1H-pyrrolo[2,3-c]pyridin-2-carboxamide]	100 to 1000	10 to 100
CC(c1ccc(F)cc1)c1cn(C)c(=O)c2[nH]c(-c3cn[nH]c3)cc12 (stereo not shown) [Compound A19, 4-(1-(4-fluorophenyl)ethyl)-6-methyl-2-(1H-pyrazol-4-yl)-1,6-dihydro-7H-pyrrolo[2,3-c]pyridin-7-one]	100 to 1000	≤ 10
CCNC(=O)c1cc2c(/C(=C/c3ccccc3)c3ccccc3)cn(C)c(=O)c2[nH]1 [Compound A24, (E)-4-(1,2-diphenylvinyl)-N-ethyl-6-methyl-7-oxo-6,7-dihydro-1H-pyrrolo[2,3-c]pyridin-2-carboxamide]	100 to 1000	10 to 100
CCNC(=O)c1cc2c(C(C)c3cccnc3)cn(C)c(=O)c2[nH]1 (stereo not shown) [Compound A11, N-ethyl-6-methyl-7-oxo-4-(1-(pyridin-3-yl)ethyl)-6,7-dihydro-1H-pyrrolo[2,3-c]pyridin-2-carboxamide]	100 to 1000	≤ 10
Cc1ccc(-c2cn(C)nc2-c2cn(C)c(=O)c3[nH]c(C(=O)Nc4cn[nH]c4)cc23)cc1 [Compound A56, 6-methyl-4-(1-methyl-4-(p-tolyl)-1H-pyrazol-3-yl)-7-oxo-N-(1H-pyrazol-4-yl)-6,7-dihydro-1H-pyrrolo[2,3-c]pyridin-2-carboxamide]	100 to 1000	10 to 100
COC(c1ccccc1)c1cn(C)c(=O)c2[nH]c(-c3cnn(C)c3)cc12 (stereo not shown) [Compound A43, 4-(methoxy(phenyl)methyl)-6-methyl-2-(1-methyl-1H-pyrazol-4-yl)-1,6-dihydro-7H-pyrrolo[2,3-c]pyridin-7-one]	100 to 1000	10 to 100
CCNC(=O)c1cc2c(-c3nc(CO)cn3-c3ccc(C)cc3)cn(C)c(=O)c2[nH]1 [Compound A36, N-ethyl-4-(4-(hydroxymethyl)-1-(p-tolyl)-1H-imidazol-2-yl)-6-methyl-7-oxo-6,7-dihydro-1H-pyrrolo[2,3-c]pyridin-2-carboxamide]	100 to 1000	10 to 100
Cc1ccc(C(C)(C)c2cn(C)c(=O)c3[nH]c(-c4cnn(C5COC5)c4)cc23)cc1 [Compound A69, 6-methyl-2-(1-(oxetan-3-yl)-1H-pyrazol-4-yl)-4-(2-(p-tolyl)propan-2-yl)-1,6-dihydro-7H-pyrrolo[2,3-c]pyridin-7-one]	100 to 1000	10 to 100
